Experimental data as given in patent US9969746B2, “Opioid compounds and their uses” (THE UNIVERSITY OF BATH, priority 2013, dated 2018).

How the values were obtained:
MOP [1] = molecular target: T1, MOP (Homo sapiens, UniProt P35372); experiment: biochemical; assay type: binding; conditions: [3H]DAMGO, membranes of CHO cells with human receptor
T1 construct: expressed in transfected cells; host or cells: CHO cells (membranes)

NOP [2] = molecular target: T2, NOP (Homo sapiens, UniProt P41146); experiment: Binding affinity to human NOP receptor transfected into CHO cells ([3H]N/OFQ)
T2 construct: expressed in transfected cells; host or cells: CHO cells (membranes)
T2 sequence (P41146 whole entry): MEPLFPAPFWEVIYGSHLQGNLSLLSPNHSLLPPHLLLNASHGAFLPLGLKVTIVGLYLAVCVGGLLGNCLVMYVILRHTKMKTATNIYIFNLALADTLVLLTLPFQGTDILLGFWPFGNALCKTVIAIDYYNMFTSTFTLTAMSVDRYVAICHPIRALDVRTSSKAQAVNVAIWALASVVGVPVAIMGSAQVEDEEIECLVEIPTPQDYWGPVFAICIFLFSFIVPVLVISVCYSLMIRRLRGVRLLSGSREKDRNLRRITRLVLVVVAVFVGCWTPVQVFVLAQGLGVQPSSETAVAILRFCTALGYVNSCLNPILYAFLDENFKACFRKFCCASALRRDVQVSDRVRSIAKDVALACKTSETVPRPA

NOP [3] = molecular target: T2, NOP; experiment: [35S]GTPγS binding, NOP; assay type: biochemical; conditions: 1 h; read-out: % stim NOP
Experimental: (§1) [^35S]GTPγS binding was conducted basically as described by Traynor and Nahorski (Traynor et al., 1995). Cells were scraped from tissue culture dishes into 20 mM Hepes, 1 mM EDTA, then centrifuged at 500×g for 10 min. Cells were resuspended in this buffer and homogenized using a Polytron Homogenizer. The homogenate was centrifuged at 27,000×g for 15 min, and the pellet re suspended in Buffer A, containing: 20 mM Hepes, 10 mM MgCl2, 100 mM NaCl, pH 7.4. The suspension was re centrifuged at 27,000×g and suspended once more in Buffer A. For the binding assay, membranes (8-15 μg protein) were incubated with [^35S]GTPγS (50 pM), GDP (10 μM), and the appropriate compound, in a total volume of 1.0 ml, for 60 min at 25′C. Samples were filtered over glass fiber filters and counted as described for the binding assays. Statistical analysis was conducted using the program Prism®.

MOP [4] = molecular target: T1, MOP; experiment: [35S]GTPγS binding, MOP; assay type: biochemical; conditions: 1 h; read-out: % stim MOP
Experimental: as §1

KOP = molecular target: T3, KOP (Homo sapiens, UniProt P41145); experiment: biochemical; assay type: binding; conditions: [3H]U69593, membranes of CHO cells with human receptor
T3 construct: expressed in transfected cells; host or cells: CHO cells (membranes)
T3 sequence (P41145 whole entry): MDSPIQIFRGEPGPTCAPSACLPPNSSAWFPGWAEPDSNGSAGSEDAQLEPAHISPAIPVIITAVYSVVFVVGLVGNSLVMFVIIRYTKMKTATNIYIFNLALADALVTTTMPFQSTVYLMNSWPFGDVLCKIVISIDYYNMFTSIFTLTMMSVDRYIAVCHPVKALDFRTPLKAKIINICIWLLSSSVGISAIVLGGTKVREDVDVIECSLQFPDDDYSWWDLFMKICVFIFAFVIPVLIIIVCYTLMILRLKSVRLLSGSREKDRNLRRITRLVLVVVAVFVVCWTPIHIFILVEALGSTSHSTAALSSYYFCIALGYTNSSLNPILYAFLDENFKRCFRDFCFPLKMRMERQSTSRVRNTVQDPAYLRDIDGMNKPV

rhesus monkeys [5] = experiment: Antinociception against acute noxious stimulus (50° C. water); assay type: in vivo
Excerpt: (§2) These findings illustrate the safe and favorable profile of 11.

rhesus monkeys [6] = experiment: Operant responding assay (self-administration); assay type: in vivo
Excerpt: as §2

KOPr = molecular target: T4, KOPr (Homo sapiens, UniProt P41145); experiment: [35S]GTPγS binding, KOPr; assay type: biochemical
T4 construct: expressed in transfected cells
T4 sequence (P41145 whole entry): as above
Experimental: as §1

rhesus monkeys [7] = experiment: Scratching responses and sedation after intrathecal administration; assay type: in vivo; conditions: intrathecal 3 μg
Excerpt: as §2

[8] = test system: carrageenan-induced thermal hyperalgesia; experiment: Carrageenan-induced thermal hyperalgesia (paw withdrawal latency); assay type: in vivo
Experimental: Compound 11 was tested for its effect on carrageenan-induced thermal hyperalgesia measured by paw withdrawal latency (FIG. 1a) and anti-hyperalgesic effect (FIG. 1b).

rhesus monkeys [9] = experiment: Physiological functions of monkeys (respiration, heart rate, blood pressure); assay type: in vivo; conditions: 0.01 mg/kg s.c.
Excerpt: as §2

T1 sequence (P35372 whole entry): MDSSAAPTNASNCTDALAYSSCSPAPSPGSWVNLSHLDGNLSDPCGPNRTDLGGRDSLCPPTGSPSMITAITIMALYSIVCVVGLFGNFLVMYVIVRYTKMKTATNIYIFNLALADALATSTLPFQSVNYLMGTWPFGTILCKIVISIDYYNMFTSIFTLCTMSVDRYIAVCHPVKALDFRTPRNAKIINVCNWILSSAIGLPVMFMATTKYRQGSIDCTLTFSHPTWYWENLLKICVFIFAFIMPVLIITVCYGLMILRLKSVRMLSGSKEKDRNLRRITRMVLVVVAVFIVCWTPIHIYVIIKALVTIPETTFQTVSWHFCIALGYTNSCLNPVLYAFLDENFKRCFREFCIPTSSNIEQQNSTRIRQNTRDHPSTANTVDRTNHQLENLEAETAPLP

In the case of `O=C(Cc1ccccc1)O[C@@]12CCC(=O)[C@@H]3Oc4c(O)ccc5c4[C@@]31CCN(CC1CC1)C2C5` [Compound 1, 14β-phenylacetyl-17-cyclopropylmethyl-7,8-dihydronoroxmorphinone], the Ki (MOP [1]) is reported as 0.86 ± 0.18 nM, the Ki (NOP [2]) is reported as 127 ± 17 nM and the Emax (NOP [3]) is reported as 28%. It also gave an Emax (MOP [4]) of 32% and a Ki (KOP) of 1.14 ± 0.46 nM.
`Cc1ccc(CC(=O)O[C@@]23CCC(=O)[C@@H]4Oc5c(O)ccc6c5[C@@]42CCN(CC2CC2)C3C6)cc1` [Compound 2, 14β-(4′-methylphenylacetyl)-17-cyclopropylmethyl-7,8-dihydronoroxymorphinone] gave a Ki (MOP [1]) of 1.87 ± 0.09 nM, a Ki (NOP [2]) of 36.3 ± 4.2 nM and an Emax (NOP [3]) of 22%. It also gave an Emax (MOP [4]) of 35% and a Ki (KOP) of 1.56 ± 0.28 nM.
`Cc1ccccc1CC(=O)O[C@@]12CCC(=O)[C@@H]3Oc4c(O)ccc5c4[C@@]31CCN(CC1CC1)C2C5` [Compound 3, 14β-(2′-methylphenylacetyl)-17-cyclopropylmethyl-7,8-dihydronoroxymorphinone] was tested, and the Ki (MOP [1]) was 3.59 ± 0.86 nM, the Ki (NOP [2]) was 44.1 ± 3.1 nM and the Emax (NOP [3]) was 21%. For the same molecule, the Emax (MOP [4]) was 42% and the Ki (KOP) was 1.69 ± 1.2 nM.
For `Cc1cccc(CC(=O)O[C@@]23CCC(=O)[C@@H]4Oc5c(O)ccc6c5[C@@]42CCN(CC2CC2)C3C6)c1` [Compound 4], the Ki (MOP [1]) was 1.91 ± 0.51 nM, the Ki (NOP [2]) was 49.9 ± 3.5 nM and the Emax (NOP [3]) was 59%. It also gave an Emax (MOP [4]) of 40% and a Ki (KOP) of 2.8 ± 0.91 nM.
`COc1cccc(CC(=O)O[C@@]23CCC(=O)[C@@H]4Oc5c(O)ccc6c5[C@@]42CCN(CC2CC2)C3C6)c1` [Compound 5, 14β-(3′-methoxyphenylacetyl)-17-cyclopropylmethyl-7,8-dihydronoroxymorphinone] gave a Ki (MOP [1]) of 1.1 ± 0.08 nM, a Ki (NOP [2]) of 50.1 ± 2.7 nM and an Emax (NOP [3]) of 36%. For the same molecule, the Emax (MOP [4]) was 11% and the Ki (KOP) was 1.44 ± 0.33 nM.
Molecule `O=C(Cc1ccc2c(c1)OCO2)O[C@@]12CCC(=O)[C@@H]3Oc4c(O)ccc5c4[C@@]31CCN(CC1CC1)C2C5` [Compound 6, 14β-(3′,4′-dioxymethylenephenylacetyl)-7-cyclopropylmethyl-7,8-dihydronoroxymorphinone] has a Ki (MOP [1]) of 0.99 ± 0.35 nM, a Ki (NOP [2]) of 94.3 ± 28 nM and an Emax (NOP [3]) of 44%. It also gave an Emax (MOP [4]) of 12% and a Ki (KOP) of 1.2 ± 0.42 nM.
`COc1ccccc1CC(=O)O[C@@]12CCC(=O)[C@@H]3Oc4c(O)ccc5c4[C@@]31CCN(CC1CC1)C2C5` [Compound 7, 14β-(2′-methoxyphenylacetyl)-17-cyclopropylmethyl-7,8-dihydronoroxmorphinone] was tested, and the Ki (MOP [1]) was 3.77 ± 0.9 nM, the Ki (NOP [2]) was 62.3 ± 4.9 nM and the Emax (NOP [3]) was 41%. The Emax (MOP [4]) was 37% and the Ki (KOP) was 3.52 ± 0.9 nM.
`O=C(Cc1ccccc1F)O[C@@]12CCC(=O)[C@@H]3Oc4c(O)ccc5c4[C@@]31CCN(CC1CC1)C2C5` [Compound 8, 14β-(2′-fluorophenylacetyl)-17-cyclopropylmethyl-7,8-dihydronoroxymorphinone] showed a Ki (MOP [1]) of 2.59 ± 1.1 nM, a Ki (NOP [2]) of 69.7 ± 2.4 nM and an Emax (NOP [3]) of 15%. The Emax (MOP [4]) was 28% and the Ki (KOP) was 4.55 ± 0.7 nM.
`O=C(Cc1ccc(Cl)cc1)O[C@@]12CCC(=O)[C@@H]3Oc4c(O)ccc5c4[C@@]31CCN(CC1CC1)C2C5` [Compound 9, 14β-(4′-chlorophenylacetyl)-17-cyclopropylmethyl-7,8-dihydronoroxymorphinone] was tested, and the Ki (MOP [1]) was 1.78 ± 0.03 nM, the Ki (NOP [2]) was 51.3 ± 14 nM and the Emax (NOP [3]) was 19%. It also gave an Emax (MOP [4]) of 8.2% and a Ki (KOP) of 3.95 ± 0.59 nM.
In the case of `O=C(Cc1ccccc1Cl)O[C@@]12CCC(=O)[C@@H]3Oc4c(O)ccc5c4[C@@]31CCN(CC1CC1)C2C5` [Compound 10, 14β-(2′-chlorophenylacetyl)-17-cyclopropylmethyl-7,8-dihydronoroxymorphinone], the Ki (MOP [1]) is reported as 4.66 ± 1.8 nM, the Ki (NOP [2]) is reported as 32.6 ± 2.3 nM and the Emax (NOP [3]) is reported as 50%. The Emax (MOP [4]) was 39% and the Ki (KOP) was 1.34 ± 0.5 nM.
With `O=C(CCc1ccccc1)O[C@@]12CCC(=O)[C@@H]3Oc4c(O)ccc5c4[C@@]31CCN(CC1CC1)C2C5` [Compound 11, 14β-Phenylpropanoyl-17-cyclopropylmethyl-7,8-dihydronoroxymorphinone] the Ki (MOP [1]) was 0.86 ± 0.23 nM, the Ki (NOP [2]) was 14.8 ± 0.94 nM and the antinociceptive effect (rhesus monkeys [5]; 0.01 mg/kg s.c., rhesus monkeys) was “full antinociceptive effects”. The antinociceptive effect (rhesus monkeys [5]; intrathecal 3 μg, monkeys) was “full antinociceptive effects”, the “duration of full antinociceptive effects” value (rhesus monkeys [5]; intrathecal 3 μg, monkeys) was 24 h and the duration of antinociception (rhesus monkeys [5]; s.c. 0.001-0.01 mg/kg, rhesus monkeys) was roughly 24 h. The “antinociception against acute noxious stimulus (50° C. water)” value (rhesus monkeys [5]; s.c. 0.001-0.01 mg/kg, rhesus monkeys, pilot experiments) was “dose-dependently produced long lasting antinociception”, the Emax (NOP [3]) was 34% and the “self-administration (abuse liability)” value (rhesus monkeys [6]) was “did not self-administer”. The Emax (MOP [4]) was 18%, the Ki (KOP) was 10.5 ± 0.17 nM and the “stimulation of the KOPr” value (KOPr) was “no stimulation”. For the same molecule, the scratching responses (rhesus monkeys [7]) was “without eliciting scratching responses”, the signs of sedation (rhesus monkeys [7]; during test period) was “did not show any signs of sedation” and the “reversal of 11-induced reversal of thermal hyperalgesia by pretreatment with NOP receptor antagonist J113397” value ([8]; J113397 pretreatment) was “partially reverse”. For the same molecule, the “effect on carrageenan-induced thermal hyperalgesia (paw withdrawal latency, anti-hyperalgesic effect)” value ([8]; intrathecal) was “efficacious and long acting”, the “reversal of 11-induced reversal of thermal hyperalgesia by pretreatment with MOP receptor antagonist naltrexone” value ([8]; naltrexone pretreatment) was “partially reverse” and the bradycardia and hypotension (rhesus monkeys [9]) was “no bradycardia and hypotension”. The respiratory depression (rhesus monkeys [9]) was “no respiratory depression”.
Molecule `COc1ccc(CCC(=O)O[C@@]23CCC(=O)[C@@H]4Oc5c(O)ccc6c5[C@@]42CCN(CC2CC2)C3C6)cc1` [Compound 12, 14β-(4′-methoxyphenylpropanoyl)-17-cyclopropylmethyl-7,8-dihydronoroxymorphinone] has a Ki (MOP [1]) of 0.91 ± 0.12 nM, a Ki (NOP [2]) of 766 ± 177 nM and an Emax (NOP [3]) of 52%. For the same molecule, the Ki (KOP) was 1.96 ± 0.04 nM and the “stimulation of the KOPr” value (KOPr) was “no stimulation”.
In the case of `COc1cccc(CCC(=O)O[C@@]23CCC(=O)[C@@H]4Oc5c(O)ccc6c5[C@@]42CCN(CC2CC2)C3C6)c1` [Compound 13, 14β-(3′-methoxyphenylpropanoyl)-17-cyclopropylmethyl-78-dihydronoroxymorphinone], the Ki (MOP [1]) is reported as 1.14 ± 0.18 nM, the Ki (NOP [2]) is reported as 154 ± 11.5 nM and the Emax (NOP [3]) is reported as 46%. For the same molecule, the Ki (KOP) was 1.24 ± 0.15 nM and the “stimulation of the KOPr” value (KOPr) was “no stimulation”.
`COc1ccccc1CCC(=O)O[C@@]12CCC(=O)[C@@H]3Oc4c(O)ccc5c4[C@@]31CCN(CC1CC1)C2C5` [Compound 14, 14β-(2′-methoxyphenylpropanoyl)-17-cyclopropylmethyl-7,8-dihydronoroxymorphinone] was tested, and the Ki (MOP [1]) was 1.67 ± 0.42 nM, the Ki (NOP [2]) was 120 ± 20.5 nM and the Emax (NOP [3]) was 56%. For the same molecule, the Ki (KOP) was 1.24 ± 0.11 nM and the “stimulation of the KOPr” value (KOPr) was “no stimulation”.
Work on `Cc1cccc(CCC(=O)O[C@@]23CCC(=O)[C@@H]4Oc5c(O)ccc6c5[C@@]42CCN(CC2CC2)C3C6)c1` [Compound 15, 14β-(3′-methylphenylpropanoyl)-17-cyclopropylmethyl-7,8-dihydronoroxymorphinone] yielded a Ki (MOP [1]) of 0.91 ± 0.1 nM, a Ki (NOP [2]) of 37.7 ± 2.6 nM and an Emax (MOP [4]) of 23%. The Ki (KOP) was 1.56 ± 0.2 nM.
`O=C(CCc1ccc(Cl)cc1)O[C@@]12CCC(=O)[C@@H]3Oc4c(O)ccc5c4[C@@]31CCN(CC1CC1)C2C5` [Compound 16, 14β-(4′-chlorophenylpropanoyl)-17-cyclopropylmethyl-7,8-dihydronoroxymorphinone] showed a Ki (MOP [1]) of 0.54 ± 0.11 nM, a Ki (NOP [2]) of 45.2 ± 17.5 nM and an Emax (NOP [3]) of 41%. For the same molecule, the Emax (MOP [4]) was 21%, the Ki (KOP) was 1.34 ± 0.12 nM and the “stimulation of the KOPr” value (KOPr) was “no stimulation”.
Molecule `O=C(CCc1cccc(Cl)c1)O[C@@]12CCC(=O)[C@@H]3Oc4c(O)ccc5c4[C@@]31CCN(CC1CC1)C2C5` [Compound 17, 14β-(3′-chlorophenylpropanoyl)-17-cyclopropylmethyl-7,8-dihydronoroxymorphinone] has a Ki (MOP [1]) of 0.39 ± 0.07 nM, a Ki (NOP [2]) of 27 ± 4.9 nM and an Emax (NOP [3]) of 22%. For the same molecule, the Emax (MOP [4]) was 26%, the Ki (KOP) was 0.74 ± 0.05 nM and the “stimulation of the KOPr” value (KOPr) was “no stimulation”.
`Cc1ccc(CCC(=O)O[C@@]23CCC(=O)[C@@H]4Oc5c(O)ccc6c5[C@@]42CCN(CC2CC2)C3C6)cc1` [Compound 18, 14β-(4′-methylphenylpropanoyl)-17-cyclopropylmethyl-7,8-dihydronoroxymorphinone] showed a Ki (MOP [1]) of 0.78 ± 0.22 nM, a Ki (NOP [2]) of 35.8 ± 1.6 nM and an Emax (NOP [3]) of 63%. For the same molecule, the Emax (MOP [4]) was 25% and the Ki (KOP) was 1.06 ± 0.4 nM.
`Cc1ccccc1CCC(=O)O[C@@]12CCC(=O)[C@@H]3Oc4c(O)ccc5c4[C@@]31CCN(CC1CC1)C2C5` [Compound 19, 14β-(2′-methylphenylpropanoyl)-17-cyclopropylmethyl-7,8-dihydronoroxymorphinone] showed a Ki (MOP [1]) of 0.56 ± 0.11 nM, a Ki (NOP [2]) of 12.1 ± 2.7 nM and an Emax (NOP [3]) of 33%. The Emax (MOP [4]) was 48% and the Ki (KOP) was 0.64 ± 0.1 nM.
